Experimental data as given in patent US20050085651A1, “Crystal of N-long-chain acylglycine salt, method of production thereof, and detergent composition using said crystal” (AJINOMOTO CO., INC., priority 2003, published 2005).

Assays:
Assay type in all cases: physicochemical
[1] = Water solubility: time taken to dissolve powder in water; conditions: second Ex. 1 powder, average particle size 20 μm; 1.5 g in 100 g of water at 30° C.
Method: (§1) The milled products of the crystals obtained in Examples 1-3 and the powder obtained in Comparative Example 2 were examined for dusting (scattering) and water solubility and dispersibility. Also, these powders were sieved and their average particle diameters were determined.
In this test, solubility is defined as time taken to dissolve 1.5 g of powder in 100 g of water at 30° C.

[2] = Scattering (dusting) test of dropped powder; conditions: second Ex. 1 powder, average particle size 20 μm; relative ratio to Comparative Example 2
Method: as §1
Scattering was quantified as described below. A 5 g powder sample was dropped by a distance of 1.2 m from the top of a cylinder (diameter: 12.5 cm). Two seconds after the drop, the scattered powder was sucked from the inlet in the base of the cylinder for 6 seconds using a blower; the powder caught by filter paper (GB100R, manufactured by Advantest Corporation) on the blower surface was weighed. This weight was expressed as a relative ratio to the powder weight in Comparative Example 2.

[3] = Water dispersibility (lumping) evaluated by five panelists; conditions: second Ex. 1 powder, average particle size 20 μm
Method: as §1
Dispersibility was evaluated by five panelists. A 1-gram powder sample was placed in the palm of each panelist and rubbed and examined for lumping in the presence of a small amount of water. Findings were evaluated using a three-grade rating system: good (O) for no lumping, acceptable (Δ) for a small amount of lumping, and poor (x) for a large amount of lumping.

[4] = Average particle diameter by sieving
Method: Using the GILSONIC AUTOSIEVER (GA-6, manufactured by GILSON), an about 2 g coarsely milled sample (pass through 425μ mesh) was sieved for 5 minutes and the resulting particles were classified by size; the average particle diameter was calculated from the weights of particles in respective classes.
as §1

[5] = milled product of crystal (Com. Ex. 2: spray-dried powder), sieved

| Dissolution rate [1] [s] | Scattering [2] | Dispersibility [3] | Average particle size [4, 5] [μm] | Average particle size ([4]; second Ex. 1 powder (finer)) [μm] | Compound |
| --- | --- | --- | --- | --- | --- |
| 341 | 0.87 | ◯ | 85 | 20 | CCCCCCCCCCCC(=O)NCC(=O)[O-].[Na+] [Ex. 1, N-lauroylglycine Sodium Salt] |
|  |  |  | 87 |  | CCCCCCCCCCCCCC(=O)NCC(=O)[O-].[Na+] [Ex. 3, N-myristoylglycine Sodium Salt] |
